Among the data in BindingDB's records for doi:10.1021/jf901979k (University of Lleida, 2009) are IC50 values, retold here.

Each structure is given as a SMILES string. pIC50: −log10 of the molar value.

This experiment in a line: Inhibition of esterase in male Ostrinia nubilalis (European corn borer) antenna.

For the molecule `CC/C=C\CCCCCCCCCC(=O)C(F)(F)F` [(Z)-10-tridecenyl trifluoromethyl ketone], the pIC50 – broadly, the IC50 on a negative log10 scale, so that one unit is a factor of ten – was 5.12.
For `CC/C=C\CCCCCCCCCCC(=O)C(F)(F)F` [(Z)-11-tetradecenyl trifluoromethyl ketone] the value was 6.55.
